Columns and labels:
[1] = molecular target: MEK1-CRAF complex (Homo sapiens (Human), UniProt Q02750); experiment: Stabilization of MEK1-CRAF complex assay (AlphaLISA); type: binding
Description: MEK1 was diluted to 4 nM, and nickel chelate donor beads and glutathione acceptor beads were diluted to 80 μg/mL. CRAF was diluted to a top concentration of 160 nM, which was subsequently diluted to 80, 40, 20, 10, 5, 2.5, 1.25, and 0.625 nM through 1:2 serial dilution.
Exemplary MEK inhibitor compounds (0, 0.01, 0.1, or 1 μM) were added to a 384-AlphaPlate (PerkinElmer, 6008350) by a digital liquid dispenser (Tecan D300e) based on a total volume of 20 μL reaction mixture.
5 μL 4×MEK1 stock solution was added to wells A1-P20 by multichannel pipettes. The plate was sealed with clear olefin sealing tape (Thermo Scientific, 232701), centrifuged at 1000 rpm for 1 minute, and incubated at room temperature for 30 minutes.
5 μL 4×CRAF stock solution at different concentrations or 5 μL or 10 μL AlphaLISA buffer was added by multichannel pipettes. The plate was sealed, centrifuged at 1000 rpm for 1 minute, and incubated at room temperature for 60 minutes.
5 μL 4×glutathione acceptor beads were first added to all wells by multichannel pipettes. The ambient light was subsequently adjusted to <100 lux (light meter) before adding 5 μL 4×nickel chelate donor beads to the same wells. From this step on, the plate was covered with a black plate cover, centrifuged at 1000 rpm for 1 minute, and incubated at room temperature for 60 minutes.
Data were collected on a PHERAStar FSX (BMG LABTECH) using the AlphaLISA module (excitation: 680 nm, emission: 615 nm), with a gain of 3600. The excitation time was 0.30 seconds, and data collection started after a 0.04-second delay for a total integration time of 0.60 seconds.
The individual AlphaLISA counts of wells with exemplary MEK inhibitor compound were divided by the average AlphaLISA counts of wells without compound to obtain AlphaLISA signal/background ratio (S/B). The dissociation constant (KD) of MEK1-CRAF was calculated using nonlinear regression curve fit in GraphPad PRISM® 9.0 software.

[2] = Cassette pharmacokinetics studies in mice; type: in vivo; conditions: male, Balb/c, plasma; Mouse, PO, 5 mg/kg
Description: Pharmacokinetics studies were conducted using cassette dosing protocols, with test compounds administered per mouse. Treatment groups were 3 mice (˜6-8 weeks old, ˜20-30 g Balb/c male mice) per route of administration. Compounds were formulated in 5% DMSO and 95% PEG400 with final concentrations of 0.5 mg/mL for IV and PO dosing. Compounds were dosed at 2 mg/kg for IV dosing and 5 mg/kg for PO dosing. Blood samples were withdrawn at 0.083, 0.25, 0.5, 1.0, 2.0, 4.0, 6.0, 8.0, and 24 hours following IV dosing, and 0.25, 0.5, 1.0, 2.0, 4.0, 6.0, 8.0, and 24 hours following PO dosing. Blood samples were centrifuged at 4,000 g for 5 minutes at 4° C. to obtain plasma samples. Plasma samples were diluted with acetonitrile containing internal standard, vortexed for 30 seconds, then centrifuged at 4,000 rpm for 15 minutes at 4° C. The supernatant was diluted with water, and compound concentration was determined by HPLC/MS/MS compared to calibration standards of 0.5-1,000 ng/mL.
Where route is listed as “IV*”, the compound was dosed IV at 1 mg/kg.

[3] = test system: Phosphorylation of ERK1/2 in AsPC1 cells; experiment: 4 hour pERK1/2 HTRF Assay; type: cell-based; conditions: Homo sapiens, ASPC1, read-out: pERK AsPC-1 HTRF (4 hour): Average IC50 (nM); AsPC-1, 4 hour
Description: AsPC1 cells were seeded at 20,000 cells/well overnight in 96-well plates, then treated with a 12-point dose response of compounds (Starting dose of 3000 nM and 3-fold dilution) for 4 hours. AsPC1 cells are a K-Ras mutant cell line. Phosphorylation of ERK1/2 on residues Thr202 and Tyr204 were detected using a Homogenous Time-Resolved Fluorescence (HTRF) assay (Cisbio Cat #64ERKPEG). Briefly, ERK phosphorylation was detected using a sandwich assay format using two phospho-ERK specific antibodies, one labelled with EU^3+-Cryptate (donor) and the second with d2 (acceptor). The Fluorescence Resonance Energy Transfer (FRET) towards the d2 acceptor was detected at a wavelength of 665 nm. ERK1/2 phosphorylation levels were normalized to total ERK1/2 protein levels in each well. IC50 values were determined by fitting a variable slope, four parameters curve to the compound concentration to normalized Phospho-ERK1/2 relationship.

[4] = Pharmacokinetics in rat; type: in vivo; conditions: plasma, IV, 1 mg/kg; for Vd: read-out: Vdss
[5] = molecular target: uMEK/BRAF (Homo sapiens (Human), UniProt Q02750); experiment: MEK-RAF Binding Assay (uMEK/BRAF HTRF)
[6] = test system: cancer cell lines; experiment: In vitro MEK inhibitor drug combinations (Cell Titer Glo, Loewe synergy); type: cell-based; conditions: combination with I-2, 5 days
Description: Cell viability was determined by Cell Titer Glo assay. […] A normalized Loewe sum of synergy score of >10 was considered synergistic, <10, but >−10 additive, and <−10 antagonistic.

[7] = test system: OCI-AML-3 xenograft (NRAS Q61L); experiment: In vivo efficacy, OCI-AML-3 xenograft model; parameters: species or system mouse; conditions: OCI-AML-3 model, 100 mg/kg QD, Day 15
Description: (§1) The antitumor activity of exemplary MEK inhibitor compounds is evaluated in vivo using human cell line derived xenografts (CDX) grown in immunodeficient mice. For these studies, AsPC1 (pancreatic cell line with KRAS G12D mutation), NCI-H2122 (lung cell line with KRAS G12C mutation), and 5637 (bladder cell line with CRAF amplification) models are used. In addition, HCT-116 (colorectal cell line with KRAS G13D mutation), SKM-1 (AML cell line with KRAS K117N mutation), and OCI-AML-3 (AML cell line with NRAS Q61L mutation) models are used. The tumor cell lines (AsPC-1, NCI-H2122, 5637, and HCT-116 cells) are maintained in vitro as monolayer culture in medium at 37° C. in an atmosphere of 5% CO2 in air. The tumor cell lines (SKM-1 and OCI-AML-3 cells) are maintained in vitro as a suspension in medium at 37° C. in an atmosphere of 5% CO2 in air. The tumor cells are routinely sub-cultured before confluence by trypsin-EDTA treatment, not to exceed 4-5 passages. The cells growing in an exponential growth phase are harvested for tumor inoculation. AsPC1, NCI-H2122, and OCI-AML-3 tumors are implanted into Balb/c nude mice. HCT-116 tumors are implanted into Nu/Nu mice. 5637 and SKM-1 tumors are implanted into NOG mice. Each mouse is inoculated subcutaneously on the right flank with tumor cells in a 1:1 mixture with matrigel. Tumors are allowed to grow to approximately 150-200 mm^3. At this time, mice are assigned to groups such that the mean tumor volume is the same for each treatment group. The MEK inhibitor compound treatments are administrated to the tumor-bearing mice via oral gavage. Throughout the study, mouse body weight and tumor volume are recorded. The measurement of tumor size is conducted twice weekly with a caliper and recorded. The tumor volume (mm^3) is estimated using the formula: TV=a×b^2/2, where “a” and “b” are long and short diameters of a tumor, respectively.

[8] = test system: SKM-1 xenograft (KRAS K117N); experiment: In vivo efficacy, SKM-1 xenograft model; parameters: species or system mouse; conditions: SKM-1 model, 100 mg/kg QD, Day 22
Description: as §1

[9] = AsPC-1, HPAF, MiaPACA2, NCI-H1373, NCI-H2122, PANC03276

uMEK/BRAF, sequence (Q02750 whole entry): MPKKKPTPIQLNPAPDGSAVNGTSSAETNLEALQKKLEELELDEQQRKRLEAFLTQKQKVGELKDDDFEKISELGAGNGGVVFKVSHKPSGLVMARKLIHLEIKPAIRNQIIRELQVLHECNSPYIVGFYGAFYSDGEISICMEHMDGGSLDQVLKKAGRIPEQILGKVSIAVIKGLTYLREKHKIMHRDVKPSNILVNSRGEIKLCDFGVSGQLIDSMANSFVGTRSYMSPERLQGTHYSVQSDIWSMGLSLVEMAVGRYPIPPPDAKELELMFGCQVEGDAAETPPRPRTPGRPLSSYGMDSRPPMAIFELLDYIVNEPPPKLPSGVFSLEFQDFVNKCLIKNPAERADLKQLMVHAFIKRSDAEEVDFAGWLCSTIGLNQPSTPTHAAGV
MEK1-CRAF complex, sequence (Q02750 whole entry, looked up): as the sequence (Q02750 whole entry) above
MEK1-CRAF complex, sequence (P04049 whole entry partner, looked up): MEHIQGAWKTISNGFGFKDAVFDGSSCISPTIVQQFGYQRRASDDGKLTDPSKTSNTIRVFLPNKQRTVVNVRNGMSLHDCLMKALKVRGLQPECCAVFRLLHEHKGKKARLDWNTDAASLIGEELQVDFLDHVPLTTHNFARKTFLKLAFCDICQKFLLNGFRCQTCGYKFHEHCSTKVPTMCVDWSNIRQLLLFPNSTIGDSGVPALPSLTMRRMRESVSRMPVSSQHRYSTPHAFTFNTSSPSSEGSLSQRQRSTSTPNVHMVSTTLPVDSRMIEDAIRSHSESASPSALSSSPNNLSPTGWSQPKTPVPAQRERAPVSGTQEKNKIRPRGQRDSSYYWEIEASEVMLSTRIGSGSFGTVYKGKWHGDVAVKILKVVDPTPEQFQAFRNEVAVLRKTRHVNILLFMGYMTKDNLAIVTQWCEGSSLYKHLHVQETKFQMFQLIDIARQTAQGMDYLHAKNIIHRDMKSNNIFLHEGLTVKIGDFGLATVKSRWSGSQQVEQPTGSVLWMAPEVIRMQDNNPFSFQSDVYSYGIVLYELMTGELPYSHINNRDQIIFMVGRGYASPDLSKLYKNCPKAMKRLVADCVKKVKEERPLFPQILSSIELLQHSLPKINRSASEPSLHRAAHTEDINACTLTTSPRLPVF

In the case of Cc1c(Oc2cccc(NS(=O)(=O)NC3CC3)c2Cl)c(C(=O)NC2CC2)c(Nc2ccc(I)cc2F)n(C)c1=O [Compound I-42], the “KD Ratio (mean), compound to DMSO” value ([1]; compound 0.01 μM) is reported as 0.78, the “KD Ratio (mean), compound to DMSO” value ([1]; compound 0.1 μM) is reported as 0.57 and the “KD Ratio (mean), compound to DMSO” value ([1]; compound 1 μM) is reported as 0.57. The AUC(0-inf) [2] was 511 ng·h/mL, the AUC(0-t) [2] was 506 ng·h/mL and the Cmax [2] was 418 ng/mL. For the same compound, the Tmax [2] was 0.4 h, the half-life [2] was 1.11 h and the IC50 [3] was < 100 nM. The AUC(0-inf) [4] was 217 ng·h/mL, the AUC(0-t) [4] was 205 ng·h/mL and the clearance [4] was 76.8 mL/min/kg. The half-life [4] was 2.09 h, the Vd [4] was 9.9 L/kg and the IC50 [5] was < 100 nM.
For CCNS(=O)(=O)Nc1cccc(Oc2c(C(=O)NC3CC3)c(Nc3ccc(I)cc3F)n(C)c(=O)c2C)c1Cl [Compound I-43], the “KD Ratio (mean), compound to DMSO” value ([1]; compound 0.01 μM) was 0.69, the “KD Ratio (mean), compound to DMSO” value ([1]; compound 0.1 μM) was 0.52 and the “KD Ratio (mean), compound to DMSO” value ([1]; compound 1 μM) was 0.51. The AUC(0-inf) [2] was 803 ng·h/mL, the AUC(0-t) [2] was 763 ng·h/mL and the Cmax [2] was 488 ng/mL. For the same compound, the Tmax [2] was 0.3 h, the half-life [2] was 3.92 h and the IC50 [3] was < 100 nM. The IC50 [5] was < 100 nM.
In the case of Cc1c(Oc2cccc(NS(=O)(=O)NCC(F)(F)F)c2Cl)c(C(=O)NC2CC2)c(Nc2ccc(I)cc2F)n(C)c1=O [Compound I-46], the AUC(0-inf) [2] is reported as 3800 ng·h/mL, the AUC(0-t) [2] is reported as 3770 ng·h/mL and the Cmax [2] is reported as 1430 ng/mL. For the same compound, the Tmax [2] was 0.6 h, the half-life [2] was 2.8 h and the IC50 [3] was < 100 nM. For the same compound, the AUC(0-inf) [4] was 1590 ng·h/mL, the AUC(0-t) [4] was 1550 ng·h/mL and the clearance [4] was 10.5 mL/min/kg. The half-life [4] was 1.86 h, the Vd [4] was 1 L/kg and the IC50 [5] was < 100 nM.
For COCCNS(=O)(=O)Nc1cccc(Oc2c(C(=O)NC3CC3)c(Nc3ccc(I)cc3F)n(C)c(=O)c2C)c1Cl [Compound I-55], the “KD Ratio (mean), compound to DMSO” value ([1]; compound 0.01 μM) was 0.76, the “KD Ratio (mean), compound to DMSO” value ([1]; compound 0.1 μM) was 0.58 and the “KD Ratio (mean), compound to DMSO” value ([1]; compound 1 μM) was 0.51. The AUC(0-inf) [2] was 1090 ng·h/mL, the AUC(0-t) [2] was 1090 ng·h/mL and the Cmax [2] was 801 ng/mL. For the same compound, the Tmax [2] was 0.4 h, the half-life [2] was 1.58 h and the IC50 [3] was < 100 nM. The IC50 [5] was < 100 nM.
With CO[C@H]1C[C@@H]2CC[C@@H](C)[C@@](O)(O2)C(=O)C(=O)N2CCCC[C@H]2C(=O)O[C@H]([C@H](C)C[C@@H]2CC[C@@H](OCCO)[C@H](OC)C2)CC(=O)[C@H](C)/C=C(\C)[C@@H](O)[C@@H](OC)C(=O)[C@H](C)C[C@H](C)/C=C/C=C/C=C/1C [Everolimus] the “Loewe Synergy Score > 10” value [6, 9] was 5/6 cell lines.
For C[C@H](Nc1ccc2c(c1)OCCn1cc(N3C(=O)OC[C@H]3C(F)F)nc1-2)C(N)=O [Inavolisib], the “Loewe Synergy Score > 10” value [6, 9] was 5/6 cell lines.
For Cc1ccc(NC(=O)c2ccnc(C(F)(F)F)c2)cc1-c1cc(OCCO)nc(N2CCOCC2)c1 [LXH254], the “Loewe Synergy Score > 10” value [6, 9] was 6/6 cell lines.
With O=C1CCc2c(Oc3ccc4c(c3)[C@@H]3[C@H](O4)[C@H]3c3nc4ccc(C(F)(F)F)cc4[nH]3)ccnc2N1 [Lifirafenib] the “Loewe Synergy Score > 10” value ([6]; NCI-H358, NCI-H1373, NCI-H2122) was 3/3 cell lines.
With Cc1nc(N2CCC3(CC2)CO[C@@H](C)[C@H]3N)c(CO)nc1-c1cccc(Cl)c1Cl [RMC-4550] the “Loewe Synergy Score > 10” value [6, 9] was 3/6 cell lines.
With C=CC(=O)N1CCN(c2nc(=O)n(-c3c(C)ccnc3C(C)C)c3nc(-c4c(O)cccc4F)c(F)cc23)[C@@H](C)C1 [Sotorasib] the “Loewe Synergy Score > 10” value ([6]; NCI-H358, NCI-H1373, NCI-H2122, MiaPACA2, NCI-H2030) was 4/5 cell lines.
With CC1(C)CCC(CN2CCN(c3ccc(C(=O)NS(=O)(=O)c4ccc(NCC5CCOCC5)c([N+](=O)[O-])c4)c(Oc4cnc5[nH]ccc5c4)c3)CC2)=C(c2ccc(Cl)cc2)C1 [venetoclax, reference compound] the “percent TGI” value [7] was 13%, the weight gain [7] was 8.3% and the “percent TGI” value [8] was 46.6%. It also gave a weight gain [8] of 7.5%.
